Experiments:
[1] = no reference given; cited from earlier work
[2] = tested on: state 3 respiration of renal cortical mitochondria; test: Ca2+-induced attenuation of state 3 respiration in isolated mitochondria; design: species or system rabbit; details: 10 μM pretreatment, then Ca2+ 1 μM for 5 min
[3] = tested on: NDUFV2 cleavage; test: Ca2+-induced cleavage of complex I subunit NDUFV2 in isolated mitochondria; design: species or system rabbit; details: 10 μM pretreatment, then Ca2+ 1 μM for 5 min
[4] = molecular target: T1, calpain 2 (Sus scrofa, UniProt A6YNL5); test: Calpain 2 inhibition; format: biochemical, porcine
T1 sequence (A6YNL5 1-700): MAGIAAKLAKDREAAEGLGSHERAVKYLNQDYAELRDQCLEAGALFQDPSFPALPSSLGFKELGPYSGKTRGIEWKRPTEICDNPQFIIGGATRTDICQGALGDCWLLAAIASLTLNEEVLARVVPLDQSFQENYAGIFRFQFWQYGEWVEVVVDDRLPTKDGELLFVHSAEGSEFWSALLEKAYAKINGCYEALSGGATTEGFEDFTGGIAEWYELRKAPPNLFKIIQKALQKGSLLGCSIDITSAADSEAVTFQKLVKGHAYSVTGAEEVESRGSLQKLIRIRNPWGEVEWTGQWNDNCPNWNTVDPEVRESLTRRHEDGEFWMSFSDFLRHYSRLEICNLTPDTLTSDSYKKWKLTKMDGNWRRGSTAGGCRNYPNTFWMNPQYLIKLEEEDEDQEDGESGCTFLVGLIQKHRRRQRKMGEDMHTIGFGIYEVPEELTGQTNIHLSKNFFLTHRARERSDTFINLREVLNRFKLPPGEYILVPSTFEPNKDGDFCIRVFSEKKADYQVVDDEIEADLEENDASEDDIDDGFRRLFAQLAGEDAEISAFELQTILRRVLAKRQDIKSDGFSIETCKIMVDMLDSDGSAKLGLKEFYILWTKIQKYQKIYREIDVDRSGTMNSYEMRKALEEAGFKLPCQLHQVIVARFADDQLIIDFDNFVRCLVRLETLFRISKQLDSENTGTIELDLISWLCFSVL
T1 sequence (P04574 1-266 partner): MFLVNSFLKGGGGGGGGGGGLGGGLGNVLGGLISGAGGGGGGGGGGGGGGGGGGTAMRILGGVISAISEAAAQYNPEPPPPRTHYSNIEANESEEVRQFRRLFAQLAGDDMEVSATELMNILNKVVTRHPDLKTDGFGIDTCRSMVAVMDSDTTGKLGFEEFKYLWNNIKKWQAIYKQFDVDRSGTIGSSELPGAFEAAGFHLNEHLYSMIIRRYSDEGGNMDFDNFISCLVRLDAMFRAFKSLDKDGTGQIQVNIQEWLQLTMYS

[5] = molecular target: T2, purified calpain 1 (Homo sapiens, UniProt P07384); test: Calpain 1 activity, sLLVY-AMC hydrolysis with purified calpain 1; format: biochemical
T2 sequence (P07384 1-714): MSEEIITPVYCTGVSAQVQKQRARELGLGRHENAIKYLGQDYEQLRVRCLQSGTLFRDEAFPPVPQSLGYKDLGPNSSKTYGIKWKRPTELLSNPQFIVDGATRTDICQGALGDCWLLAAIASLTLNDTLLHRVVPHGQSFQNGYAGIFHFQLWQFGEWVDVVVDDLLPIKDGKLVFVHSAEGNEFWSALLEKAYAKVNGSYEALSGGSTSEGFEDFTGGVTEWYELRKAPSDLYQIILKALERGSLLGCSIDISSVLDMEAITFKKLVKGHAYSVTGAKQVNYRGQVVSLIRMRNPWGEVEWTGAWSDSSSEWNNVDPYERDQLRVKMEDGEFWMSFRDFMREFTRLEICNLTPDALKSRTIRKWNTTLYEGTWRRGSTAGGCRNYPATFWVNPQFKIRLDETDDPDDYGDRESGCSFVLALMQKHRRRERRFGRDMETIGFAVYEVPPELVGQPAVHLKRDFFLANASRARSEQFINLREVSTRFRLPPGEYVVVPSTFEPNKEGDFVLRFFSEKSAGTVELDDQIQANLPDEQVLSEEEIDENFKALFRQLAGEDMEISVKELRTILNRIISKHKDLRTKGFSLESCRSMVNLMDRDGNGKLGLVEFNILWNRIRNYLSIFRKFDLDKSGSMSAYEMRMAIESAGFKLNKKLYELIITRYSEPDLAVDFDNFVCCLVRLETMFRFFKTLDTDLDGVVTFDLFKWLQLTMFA
T2 sequence (P04632 1-268 partner): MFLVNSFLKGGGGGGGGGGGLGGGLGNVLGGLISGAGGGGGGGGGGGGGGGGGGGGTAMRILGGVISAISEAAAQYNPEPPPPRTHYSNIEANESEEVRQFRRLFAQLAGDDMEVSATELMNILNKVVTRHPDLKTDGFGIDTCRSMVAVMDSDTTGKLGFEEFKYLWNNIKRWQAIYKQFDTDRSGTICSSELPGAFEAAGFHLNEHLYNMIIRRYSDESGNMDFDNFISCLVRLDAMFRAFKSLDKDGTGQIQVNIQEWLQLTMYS

[6] = tested on: calpain; details: cited from earlier work

Structure (SMILES): CCS [ethanethiol]
- thiol pKa [1]: 10.61

Structure (SMILES): CCCC[C@@H](C=O)NC(=O)[C@H](CC(C)C)NC(=O)OCc1ccccc1 [Calpeptin, Z-Leu-Nle-CHO]
- Ca2+-induced attenuation of state 3 respiration [2]: blocked
- Ca2+-induced cleavage of complex I subunit NDUFV2 [3]: blocked
- IC50 [4]: ~60 nM
- IC50 [5]: ~40 nM

Structure (SMILES): COc1ccc(S)cc1 [methoxythiophenol]
- thiol pKa [1]: 6.8

Structure (SMILES): O=C(O)/C(S)=C/c1ccc(I)cc1 [PD150606]
- selectivity for calpain over cathepsin B [6]: 600 fold

Structure (SMILES): O=C(O)/C(S)=C/c1c[nH]c2ccc(F)cc12 [PD151746]
- selectivity for calpain over cathepsin B [6]: 600 fold

— PMC2801808 (Journal of medicinal chemistry, 2009)
